Measured values: patent publication US20050054586A1, “Treatment of ophthalmic disorders” (priority 2003, published 2005)

Tests used:
Type in all cases: in vivo
[1] = tested on: human patients with type-1 diabetes and affected by non-proliferative diabetic retinopathy; assay: Clinical study: visual acuity assessed by eye chart; settings: one tablet daily, 100 mg cloricromene hydrochloride; start of study versus one-year; 20 patients
Protocol: (§1) A clinical study was conducted in order to test the safety and efficacy of the compounds for treating ophthalmic disorders. The study included 40 human patients with type-1 diabetes and affected by non-proliferative diabetic retinopathy. Twenty of the patients received one tablet daily containing cloricromene hydrochloride (100 mg), whereas twenty of the patients formed a control group and received no treatment. Patients were randomly assigned either to receive cloricromene or to receive no treatment. The patients included males and females over 45 years of age assessed with type-1 diabetes mellitus and non-proliferative retinopathy assessed by fundus photography and fluoroscein angiography. For patients with bilateral disease, both eyes were evaluated. For patients with unilateral disease, the affected eye served as the study eye. Excluded from the study were subjects: affected with proliferative diabetic retinopathy; having visual acuity less than 2/10; with a history of renal failure; or receiving treatment with anti-coagulants, platelet anti-aggregants, or fibrinolytics.
(§2) The results summarized in the following tables are based on start of study versus one-year study period. Visual acuity was assessed by the patients' use of an eye chart. The presence of hemorrhaging, hard exudates or vascular leakage in the retina was evaluated as a means of grading degree of retinal lesion. Hemorrhaging and hard exudates were assessed primarily by observing the stereoscopic color fundus photographs of the retain. Vascular leakage was assessed primarily by fluorescein staining.

[2] = tested on: human patients with type-1 diabetes and affected by non-proliferative diabetic retinopathy; assay: Clinical study: retinal hemorrhages (stereoscopic color fundus photographs); settings: one tablet daily, 100 mg cloricromene hydrochloride; start of study versus one-year; 20 patients
Protocol: as §1, §2

[3] = tested on: human patients with type-1 diabetes and affected by non-proliferative diabetic retinopathy; assay: Clinical study: hard exudates in the retina (stereoscopic color fundus photographs); settings: one tablet daily, 100 mg cloricromene hydrochloride; start of study versus one-year; 20 patients
Protocol: as §1, §2

[4] = tested on: human patients with type-1 diabetes and affected by non-proliferative diabetic retinopathy; assay: Clinical study: retinal vascular leakage (fluorescein staining); settings: one tablet daily, 100 mg cloricromene hydrochloride; start of study versus one-year; 20 patients
Protocol: as §1, §2

[5] = tested on: human patients with type-1 diabetes and affected by non-proliferative diabetic retinopathy; assay: Clinical study: overall progression of retinal damage; settings: one tablet daily, 100 mg; one-year study period; versus untreated controls
Protocol: as §1, with “Excluded from the study were subjects: affected with proliferative diabetic retinopathy; having visual acuity less than 2/10; with a history of renal failure; or receiving treatment with anti-coagulants, platelet anti-aggregants, or fibrinolytics.” left out
as §2

CCOC(=O)COc1ccc2c(C)c(CCN(CC)CC)c(=O)oc2c1Cl [Cloricromene, cloricromene]
Visual Acuity: Improved, number of patients (%) [1]: 11 (55%) | Visual Acuity: Stable, number of patients (%) [1]: 8 (40%) | Visual Acuity: Worse, number of patients (%) [1]: 1 (5%) | Retinal Hemorrhages: Improved, number of patients (%) [2]: 13 (65%) | Retinal Hemorrhages: Stable, number of patients (%) [2]: 6 (30%) | Retinal Hemorrhages: Worse, number of patients (%) [2]: 1 (5%) | Hard Exudates: Improved, number of patients (%) [3]: 14 (70%) | Hard Exudates: Stable, number of patients (%) [3]: 6 (30%) | Hard Exudates: Worse, number of patients (%) [3]: 0 (0%) | Vascular Leakage: Improved, number of patients (%) [4]: 3 (15%) | Vascular Leakage: Stable, number of patients (%) [4]: 16 (80%) | Vascular Leakage: Worse, number of patients (%) [4]: 1 (5%) | progression of retinal damage in diabetic patients [5]: effective in delaying the progression of retinal damage
